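Cultured in 96-well plates, cells were exposed to test compound for 48 hours across five concentrations. GI50: concentration for 50% inhibition of growth.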 The source made the active and inactive calls. Cut-off read from the data, not from the text of the source: active = GI50 up to about 1.1 µM and inactive = higher.
What was measured:
Experiment in all cases: inhibition of tumour cell growth, NCI panel, 48 h
KM12 = system: KM12
K562 = system: K562
A549 = system: A549
SW-620 = system: SW-620
T47D = system: T47D
HT-29 = system: HT-29
PC-3 = system: PC-3
RPMI-8226 = system: RPMI-8226
HOP-92 = system: HOP-92
SNB-19 = system: SNB-19
COLO 205 = system: COLO 205
U-251 = system: U-251
OVCAR-8 = system: OVCAR-8
SK-MEL-28 = system: SK-MEL-28
MDA-MB-231 = system: MDA-MB-231
HCC 2998 = system: HCC 2998
DU-145 = system: DU-145
EKVX = system: EKVX
HL-60 = system: HL-60
NCI-H522 = system: NCI-H522
SK-MEL-5 = system: SK-MEL-5
NCI-H460 = system: NCI-H460
OVCAR-3 = system: OVCAR-3
UACC-62 = system: UACC-62
TK-10 = system: TK-10
HCT-116 = system: HCT-116
MDA-MB-435 = system: MDA-MB-435
SK-MEL-2 = system: SK-MEL-2
Malme-3M = system: Malme-3M
786-0 = system: 786-0
IGROV-1 = system: IGROV-1
CCRF-CEM = system: CCRF-CEM
MOLT-4 = system: MOLT-4
SK-OV-3 = system: SK-OV-3
A498 = system: A498
HCT-15 = system: HCT-15
SF-295 = system: SF-295
SF-539 = system: SF-539
UACC-257 = system: UACC-257
M14 = system: M14
SF-268 = system: SF-268
SNB-75 = system: SNB-75
Hs-578T = system: Hs-578T
CAKI-1 = system: CAKI-1
MCF7 = system: MCF7
NCI-H226 = system: NCI-H226
BT-549 = system: BT-549
LOX IMVI = system: LOX IMVI
NCI-H23 = system: NCI-H23
SN12C = system: SN12C
OVCAR-5 = system: OVCAR-5
SR = system: SR
ACHN = system: ACHN
OVCAR-4 = system: OVCAR-4
MDA-N = system: MDA-N
HOP-62 = system: HOP-62

For Cc1cccc(Cl)c1NC(=O)/C=C/c1ccccc1, the GI50 (KM12) was 74.5 µM (inactive), the GI50 (K562) was > 100 µM (inactive) and the GI50 (A549) was 94 µM (inactive). The GI50 (SW-620) was > 100 µM (inactive), the GI50 (T47D) was 36.7 µM (inactive) and the GI50 (HT-29) was 59.3 µM (inactive). For the same molecule, the GI50 (PC-3) was > 100 µM (inactive), the GI50 (RPMI-8226) was 32.3 µM (inactive) and the GI50 (HOP-92) was 29.6 µM (inactive). For the same molecule, the GI50 (SNB-19) was > 100 µM (inactive), the GI50 (COLO 205) was > 100 µM (inactive) and the GI50 (U-251) was 87.7 µM (inactive). For the same molecule, the GI50 (OVCAR-8) was 26.1 µM (inactive), the GI50 (SK-MEL-28) was > 100 µM (inactive) and the GI50 (MDA-MB-231) was 32.4 µM (inactive). The GI50 (HCC 2998) was 74.6 µM (inactive), the GI50 (DU-145) was 67.6 µM (inactive) and the GI50 (EKVX) was 49.2 µM (inactive). For the same molecule, the GI50 (HL-60) was 84.1 µM (inactive), the GI50 (NCI-H522) was 49.3 µM (inactive) and the GI50 (SK-MEL-5) was 95.5 µM (inactive). For the same molecule, the GI50 (NCI-H460) was 86.3 µM (inactive), the GI50 (OVCAR-3) was > 100 µM (inactive) and the GI50 (UACC-62) was > 100 µM (inactive). For the same molecule, the GI50 (TK-10) was 40.6 µM (inactive), the GI50 (HCT-116) was 39.4 µM (inactive) and the GI50 (MDA-MB-435) was > 100 µM (inactive). The GI50 (SK-MEL-2) was > 100 µM (inactive), the GI50 (Malme-3M) was > 100 µM (inactive) and the GI50 (786-0) was 36.3 µM (inactive). For the same molecule, the GI50 (IGROV-1) was 97.5 µM (inactive), the GI50 (CCRF-CEM) was > 100 µM (inactive) and the GI50 (MOLT-4) was > 100 µM (inactive). For the same molecule, the GI50 (SK-OV-3) was 37.3 µM (inactive), the GI50 (A498) was > 100 µM (inactive) and the GI50 (HCT-15) was over 100 µM. For the same molecule, the GI50 (SF-295) was 36.6 µM (inactive), the GI50 (SF-539) was 44.8 µM (inactive) and the GI50 (UACC-257) was > 100 µM (inactive). For the same molecule, the GI50 (M14) was > 100 µM (inactive), the GI50 (SF-268) was 67 µM (inactive) and the GI50 (SNB-75) was 24.2 µM (inactive). The GI50 (Hs-578T) was 33 µM (inactive), the GI50 (CAKI-1) was 76.9 µM (inactive) and the GI50 (MCF7) was 32.5 µM (inactive). For the same molecule, the GI50 (NCI-H226) was > 100 µM (inactive), the GI50 (BT-549) was > 100 µM (inactive) and the GI50 (LOX IMVI) was > 100 µM (inactive). The GI50 (NCI-H23) was > 100 µM (inactive), the GI50 (SN12C) was 80.5 µM (inactive) and the GI50 (OVCAR-5) was > 100 µM (inactive). For the same molecule, the GI50 (SR) was > 100 µM (inactive), the GI50 (ACHN) was 42.3 µM (inactive) and the GI50 (OVCAR-4) was 26.9 µM (inactive). For the same molecule, the GI50 (MDA-N) was > 100 µM (inactive) and the GI50 (HOP-62) was 74.6 µM (inactive).

From ChEMBL document CHEMBL1201862, “PubChem BioAssay data set” (2004)
